Entries after “also recorded” stand apart in the source; their conditions may differ. Read-outs that look alike come from different tables or passages of the source.
Tests used:
[1] = In vivo pharmacokinetics in mice; parameters: species or system female NMRI mice; conditions: for Tmax: female, NMRI; for Tmax / Cmax / half-life / AUC(0-t): mouse, whole blood, blood; for AUC(0-t): read-out: AUC(0–8) (converted)
Experimental: In vivo pharmacokinetics in mice: Compounds 1 and 28 were dosed orally by gavage as a solution at 5 mg free base per kg or 20 mg free base per kg, respectively (dose volume: 5 or 10 mL kg^−1, dose vehicle: 5 % DMSO, 40 % PEG400, 55 % distilled H2O) to female NMRI mice (n=3). Compounds 28, 38, and 56 were dosed as a bolus solution intraperitoneally at 10 (56) or 20 (28 and 38) mg free base per kg (dose volume: 10 mL kg^−1, dose vehicle: 5 % DMSO, 40 % PEG400, 55 % sterile H2O) to female NMRI mice (n=3). Female NMRI mice were chosen, as these represent the sex and strain used for the stage-1 and stage-2 HAT efficacy models. Blood samples were taken from each mouse at 5 (i.p. only), 15 and 30 min, 1, 2, 4, 6 and 8 h post-dose and mixed with two volumes of distilled H2O. After suitable sample preparation, the concentration of each compound in blood was determined by UPLC–MS/MS using a Quattro Premier XE (Waters, USA). Pharmacokinetic parameters were derived from the mean blood concentration time curve using PKsolutions software ver. 2.0 (Summit Research Services, USA).

[2] = Plasma protein binding (equilibrium dialysis); assay type: in vitro ADME; conditions: mouse plasma
Experimental: Plasma protein binding experiments: In brief, a 96-well equilibrium dialysis apparatus was used to determine the free fraction in plasma for each compound (HT Dialysis LLC, Gales Ferry, CT, USA). Membranes (12-14 kDa cutoff) were conditioned in deionised H2O for 60 min, followed by conditioning in 80:20 deionised H2O/EtOH for 20 min, and then rinsed in isotonic buffer before use. Female CD1 mouse plasma was removed from the freezer and allowed to thaw on the day of experiment. Thawed plasma was then centrifuged (Allegra […], Beckman Coulter, USA), spiked with test compound (10 μg g^-1), and 150 μL aliquots (n=6 replicate determinations) loaded into the 96-well equilibrium dialysis plate. Dialysis against isotonic buffer (150 μL) was carried out for 5 h in a temperature-controlled incubator at ∼37 °C (Barworld Scientific Ltd., UK) using an orbital microplate shaker at 125 rpm (Barworld Scientific). At the end of the incubation period, aliquots of plasma or buffer were transferred to micronic tubes (Micronic B.V., the Netherlands), and the composition in each tube was balanced with control fluid such that the volume of buffer to plasma is the same. Sample extraction was performed by the addition of 400 μL MeCN containing an appropriate internal standard. Samples were allowed to mix for 1 min and then centrifuged at 3000 rpm in 96-well blocks for 15 min (Allegra […], Beckman Coulter, USA). All samples were analysed by UPLC-MS/MS on a Quattro Premier XE Mass Spectrometer (Waters Corp.). The unbound fraction was determined as the ratio of the peak area in buffer to that in plasma.

[3] = test system: T. brucei bloodstream-stage cells; assay: Static–cidal (SC) assay; assay type: cell-based, Trypanosoma brucei brucei; conditions: for EC50: 48 h
Experimental: Determination of cidality against T. brucei bloodstream-stage cells was performed using a static–cidal (SC) assay as previously reported.[26] Briefly, bloodstream-form trypanosomes were seeded into 384-well plates at 4×10^5 mL^−1 (50 μL per well), followed by immediate addition of resazurin (50 μM final) to one of the plates, and all plates were incubated at 37 °C, 5 % CO2. After 4 h the t0 plate was read using a PerkinElmer Victor 3 plate reader (λex=528 nm, λem=590 nm). The second plate was processed in the same manner 20 h later, and at 44 h the last plate was processed. The minimum cidal concentration (MCC) is defined as the lowest concentration of drug that results in a decrease of resorufin signal over time. For dose–response curves from this assay either a monophasic or a biphasic equation was used, depending on which one provided the best fit. For monophasic fits, the following four-parametric equation [Eq. (1)] was used:
in which A=percent inhibition at bottom, B=percent inhibition at top, C=EC50, D=slope, x=inhibitor concentration, and y=percent inhibition. Equation (2) was used for biphasic fits:
for which A=percent inhibition at mid-plateau, B=slope, C=log[SC EC50(1)], D=log[SC EC50(2)]. Thus SC EC50(1) is the EC50 for the first phase of the curve, and SC EC50(2) is that for the second phase. Inhibition at the bottom of the curve is fixed at 0 % and at the top, 100 %.

[4] = po, 5 mg kg^−1, female NMRI mice
[5] = ip, 20 mg kg^−1, female NMRI mice
[6] = po, 20 mg kg^−1, female NMRI mice

CC(c1ccccc1)n1c(=O)[nH]c2ncc(-c3ccc(F)cc3)nc21 (stereo not drawn) [Compound 1]
Tmax ([1]; po, 5 mg/kg, 5 mg kg^−1, female NMRI mice): ~2 h
Cmax [1, 4]: 110 ng/mL
half-life [1, 4]: 3 h
AUC(0-t) [1, 4]: 600 ng·h/mL
protein binding (unbound) [2]: 0.3 % unbound

O=c1[nH]c2ncc(-c3ccccc3CO)nc2n1C1CCCCC1 [Compound 28]
EC50 ([3]; Trypanosoma brucei, static cidal EC50, first site/phase, read-out: SC EC50(1)): 100 nM
EC50 ([3]; Trypanosoma brucei, static cidal EC50, second site/phase, read-out: SC EC50(2)): > 50000 nM
MCC ([3]; Trypanosoma brucei, static–cidal assay in triplicate, read-out: MCC (minimal cidal concentration)): > 50 µM
mode of antiparasitic effect (in words) ([3]; text and figure legend, at concentrations tested): growth-slowing or static behaviour; also recorded: growth-slowing
time to reach Cmax ([1]; dosed orally, 20 mg kg^−1): 15 min
Tmax ([1]; ip, 20 mg/kg, 20 mg kg^−1, female NMRI mice): 0.083 h
Tmax ([1]; po, 20 mg/kg, 20 mg kg^−1, female NMRI mice): 0.25 h
Cmax [1, 5]: 5200 ng/mL
half-life [1, 5]: 1.2 h
AUC(0-t) [1, 5]: 3830 ng·h/mL
Cmax [1, 6]: 910 ng/mL
half-life [1, 6]: 1.7 h
AUC(0-t) [1, 6]: 1150 ng·h/mL
fraction unbound at 5 h, 10 μg g^−1 ([2]; female, CD1, equilibrium dialysis, read-out: PPB): 0.072
protein binding (unbound) [2]: 7.2 % unbound
PPB ([2]; equilibrium dialysis): 7.2 % free
